Paper PMC8870237, “Improved Multimodal Tumor Necrosis Imaging with IRDye800CW-DOTA Conjugated to an Albumin-Binding Domain” (Cancers, 2022)

Tested on: 4T1-Luc2 tumor-bearing mice
Assay: Ex vivo biodistribution in 4T1-Luc2 tumor-bearing mice
Design: species or system mouse
Details: for Tumor to blood ratio / Tumor to muscle ratio: 4T1-Luc2 tumors; for Blood uptake / Bone marrow uptake / Bone uptake / Brain uptake / Colon uptake / Heart uptake / Kidneys uptake / Liver uptake / Lung uptake / Lymph nodes uptake / Muscle uptake / Pancreas uptake / Skin uptake / Small intestine uptake / Spleen uptake / 4T1-Luc2 Tumors uptake: ±SEM; for Blood uptake / Bone marrow uptake / Bone uptake / Brain uptake / Colon uptake / Heart uptake / Kidneys uptake / Liver uptake / Lung uptake / Lymph nodes uptake / Muscle uptake / Pancreas uptake / Skin uptake / Small intestine uptake / Spleen uptake: n = 4; for 4T1-Luc2 Tumors uptake: n = 8
Experimental: Female BALB/cAnNRj-nude mice (six to eight weeks old) were housed in ventilated cages in groups of four to six mice and were provided standard laboratory animal food pellets and water ad libitum. One week after arrival, tumor cells were injected bilaterally on the shoulders. Tumor growth was monitored three days per week with a caliper. All groups consisted of four mice with bilateral tumors.
The 4T1-Luc2 cells (1.0 × 10^5) suspended in 15 µL PBS were inoculated bilaterally in 16 mice in four groups of four animals each. […] First, FLI imaging was performed with a 730 nm excitation and 760 nm emission filter for 400 ms with 4 × 4 binning. Then, the mice received an intraperitoneal injection of D-luciferin (150 mg/kg) maintaining the position of the mice in the bed unaltered, and BLI imaging was performed with an open filter for 400 ms with 4 × 4 binning. Full body (head to tail base) SPECT images of the 5 cm axial field of view were obtained over a total scan time of 30 min, followed by a 2 min full-body CT. After imaging, the mice were euthanized for ex vivo analysis.
After the final imaging experiments, the mice were sacrificed by cervical dislocation, tumors and organs were collected, weighted, and activity was accurately quantified by γ-counting to determine radioactivity uptake in the percentage of injected dose per gram (%ID/g). After γ-counting, the tumors were frozen in liquid nitrogen and stored at −80 °C overnight. Adjacent cryosections (10 µm) were prepared of the tumor centers for autoradiography. The sections were stored at −20 °C for the radioactivity to decay, before 800 nm fluorescence imaging and histochemical dead cell staining.

SMILES: CC1(C)C(=CC=C2CCCC(C=CC3=[N+](CCCCCC(=O)NCCCC[C@H](NC(=O)CCCc4ccc(I)cc4)C(=O)NCc4ccc(CNC(=O)CN5CCN(CC(=O)[O-])CCN(CC(=O)[O-])CCN(CC(=O)[O-])CC5)cc4)c4ccc(S(=O)(=O)O)cc4C3(C)C)=C2Oc2ccc(S(=O)(=O)O)cc2)N(CCCCS(=O)(=O)O)c2ccc(S(=O)(=O)O)cc21.[111In+3] [[^111In]3]
- excretion route (4T1-Luc2 tumor-bearing mice, from biodistribution): predominately excreted via the renal tract
- blood half-life (4T1-Luc2 tumor-bearing mice, i.v.): 9 h
- Tumor to blood ratio (6 h p.i.): 0.91±0.05
- Tumor to muscle ratio (6 h p.i.): 3.19±0.43
- Blood uptake (6 h p.i., i.v.): 4.34±0.22 %ID/g
- Bone marrow uptake (6 h p.i., i.v.): 1.42±0.87 %ID/g
- Bone uptake (6 h p.i., i.v.): 1.63±0.16 %ID/g
- Brain uptake (6 h p.i., i.v.): 0.14±0.03 %ID/g
- Colon uptake (6 h p.i., i.v.): 1.60±0.13 %ID/g
- Heart uptake (6 h p.i., i.v.): 2.32±0.11 %ID/g
- Kidneys uptake (6 h p.i., i.v.): 6.04±1.13 %ID/g
- Liver uptake (6 h p.i., i.v.): 2.24±0.28 %ID/g
- Lung uptake (6 h p.i., i.v.): 3.29±0.25 %ID/g
- Lymph nodes uptake (6 h p.i., i.v.): 3.91±0.97 %ID/g
- Muscle uptake (6 h p.i., i.v.): 1.31±0.20 %ID/g
- Pancreas uptake (6 h p.i., i.v.): 1.33±0.13 %ID/g
- Skin uptake (6 h p.i., i.v.): 2.59±0.09 %ID/g
- Small intestine uptake (6 h p.i., i.v.): 0.93±0.07 %ID/g
- Spleen uptake (6 h p.i., i.v.): 1.87±0.18 %ID/g
- 4T1-Luc2 Tumors uptake (6 h p.i., i.v.): 3.94±0.19 %ID/g
- Tumor to blood ratio (24 h p.i.): 2.50 ± 0.20
- Tumor to muscle ratio (24 h p.i.): 7.26±0.89
- Blood uptake (24 h p.i., i.v.): 1.31±0.05 %ID/g
- Bone uptake (24 h p.i., i.v.): 0.93±0.13 %ID/g
- Brain uptake (24 h p.i., i.v.): 0.07±0.00 %ID/g
- Colon uptake (24 h p.i., i.v.): 0.70±0.07 %ID/g
- Heart uptake (24 h p.i., i.v.): 1.22±0.06 %ID/g
- Liver uptake (24 h p.i., i.v.): 1.20±0.01 %ID/g
- Lung uptake (24 h p.i., i.v.): 1.20±0.04 %ID/g
- Lymph nodes uptake (24 h p.i., i.v.): 2.42±0.18 %ID/g
- Muscle uptake (24 h p.i., i.v.): 0.46±0.03 %ID/g
- Pancreas uptake (24 h p.i., i.v.): 0.65±0.05 %ID/g
- Skin uptake (24 h p.i., i.v.): 1.83±0.29 %ID/g
- Small intestine uptake (24 h p.i., i.v.): 0.53±0.05 %ID/g
- Spleen uptake (24 h p.i., i.v.): 1.45±0.03 %ID/g
- 4T1-Luc2 Tumors uptake (24 h p.i., i.v.): 3.27±0.25 %ID/g
- Tumor to blood ratio (48 h p.i.): 4.54±0.45
- Tumor to muscle ratio (48 h p.i.): 7.27±0.34
- Blood uptake (48 h p.i., i.v.): 0.58±0.01 %ID/g
- Bone uptake (48 h p.i., i.v.): 0.74±0.04 %ID/g
- Brain uptake (48 h p.i., i.v.): 0.04±0.00 %ID/g
- Colon uptake (48 h p.i., i.v.): 0.37±0.02 %ID/g
- Heart uptake (48 h p.i., i.v.): 0.78±0.01 %ID/g
- Kidneys uptake (48 h p.i., i.v.): 8.31±0.96 %ID/g
- Liver uptake (48 h p.i., i.v.): 0.90±0.04 %ID/g
- Lung uptake (48 h p.i., i.v.): 0.76±0.03 %ID/g
- Lymph nodes uptake (48 h p.i., i.v.): 3.30±0.62 %ID/g
- Muscle uptake (48 h p.i., i.v.): 0.36±0.03 %ID/g
- Pancreas uptake (48 h p.i., i.v.): 0.48±0.04 %ID/g
- Skin uptake (48 h p.i., i.v.): 1.46±0.03 %ID/g
- Small intestine uptake (48 h p.i., i.v.): 0.33±0.01 %ID/g
- Spleen uptake (48 h p.i., i.v.): 1.19±0.07 %ID/g
- 4T1-Luc2 Tumors uptake (48 h p.i., i.v.): 2.62±0.23 %ID/g
- Tumor to blood ratio (72 h p.i.): 7.36±0.93
- Tumor to muscle ratio (72 h p.i.): 9.10±1.58
- Blood uptake (72 h p.i., i.v.): 0.31±0.03 %ID/g
- Bone marrow uptake (72 h p.i., i.v.): 2.25±0.65 %ID/g
- Bone uptake (72 h p.i., i.v.): 0.51±0.05 %ID/g
- Brain uptake (72 h p.i., i.v.): 0.03±0.00 %ID/g
- Colon uptake (72 h p.i., i.v.): 0.23±0.02 %ID/g
- Heart uptake (72 h p.i., i.v.): 0.63±0.02 %ID/g
- Kidneys uptake (72 h p.i., i.v.): 5.72±0.49 %ID/g
- Liver uptake (72 h p.i., i.v.): 0.83±0.04 %ID/g
- Lung uptake (72 h p.i., i.v.): 0.56±0.05 %ID/g
- Lymph nodes uptake (72 h p.i., i.v.): 2.39±0.25 %ID/g
- Muscle uptake (72 h p.i., i.v.): 0.26±0.03 %ID/g
- Pancreas uptake (72 h p.i., i.v.): 0.32±0.02 %ID/g
- Skin uptake (72 h p.i., i.v.): 1.52±0.09 %ID/g
- Small intestine uptake (72 h p.i., i.v.): 0.20±0.02 %ID/g
- Spleen uptake (72 h p.i., i.v.): 1.10±0.18 %ID/g
- 4T1-Luc2 Tumors uptake (72 h p.i., i.v.): 2.25±0.64 %ID/g
- ex vivo colocalization with dead cells (autoradiography, NIR fluorescence, TUNEL) (adjacent sections of 4T1-Luc2 tumors): specific binding of the tracer to necrotic tumor regions
